From patent US12358907B2, “Substituted pyrrolidine amides III” (GRÜNENTHAL GMBH, priority 2019, dated 2025)

Columns and labels:
[1] = target: human glucocorticoid receptor (Homo sapiens (Human), UniProt P04150); experiment: Human glucocorticoid receptor (hGR) ligand-binding assay (3H-dexamethasone competition, IM9 cytosol); conditions: read-out: % inhibition hGR at 1 μM
Procedure: Preferably, the glucocortitcoid receptor extracted from cytosol of IM9 cells is used for competitive radioligand binding assays to calculate percentage inhibition of the binding of radiolabeled ligand 3H-dexamethasone at the human glucocorticoid receptor.
The human lymphoblast cell line IM9 (ATCC, Bethesda, MD) was cultivated in RPMI 1640 media containing 10% fetal bovine serum, penicillin (100 U/ml), streptomycin (100 μg/ml), and 2 mM L-glutamine at 37° and 7% CO2 in a humidified incubator. Cells were centrifuged for 10 minutes at 1500 g and were washed in PBS and repelleted. Cell were then resuspended in homogenization buffer consisting of: 10 mM TES, 10 mM sodium molybdate, 1 mM EDTA, pH 7.4, 20 mM 2-mercaptoethanol, and 10% glycerol. Disruption of the cells was performed by nitrogen cavitation using 2×15 minutes at 600 to 750 psi nitrogen in a N2 cavitator at 0° C. The cell preparation was then centrifuged at 27,000 g for 15 minutes, and the resultant supernatant (=cytosol of IM9 cells) was centrifuged at 103,000 g for 60 minutes at 4° C. The amount of protein in the supernatant fraction was determined using a BCA assay kit and aliquots were snap frozen in a dry ice-acetone bath and stored at −70° C. Competitive binding assays were done in duplicate in homogenization buffer with a total volume of 200 μl. To this end, 1 mg of IM9 cytosol, 0.05 μCi (1.5 nM) of 3H-dexamethasone and unlabeled Example compounds as competitor compounds at 1 μM were mixed. The reaction was stopped after incubation at 0° C. for 16 to 18 hours by the addition of 100 μl of a charcoal-dextran mixture (2% activated charcoal, 0.5% dextran in 10 mM Tris, 1 mM EDTA, pH 7.4). Another incubation step at 0° C. for 10 minutes followed before the samples were centrifuged for 5 minutes at 8200 g. 100 μl of the supernatant) was finally assayed for radioactivity by liquid scintillationspectrometry, and percentage inhibition of 3H-dexamethasone binding was calculated.

[2] = target: glucocorticoid receptor (GAL4 DBD-GR) (Homo sapiens (Human), UniProt P04150); experiment: GR cell-based assays (GRE agonist / GRE antagonist), CHO-Gal4/GR luciferase reporter; conditions: read-out: IC50 or EC50
Sequence of glucocorticoid receptor (GAL4 DBD-GR) (P04150 524-758): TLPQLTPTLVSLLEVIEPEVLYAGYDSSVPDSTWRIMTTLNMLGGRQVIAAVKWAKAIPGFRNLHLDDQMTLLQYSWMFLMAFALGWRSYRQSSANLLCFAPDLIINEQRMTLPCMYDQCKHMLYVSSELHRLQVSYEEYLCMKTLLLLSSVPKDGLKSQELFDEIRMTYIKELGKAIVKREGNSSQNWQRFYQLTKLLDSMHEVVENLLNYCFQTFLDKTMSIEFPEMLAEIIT
Procedure, shortened: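 CHO cells stably carrying GAL4 DBD-GR ligand-binding-domain fusion and a GAL4-UAS firefly luciferase reporter were treated in Opti-MEM with 8 half-log concentrations from 10 μM to 0.003 μM (0.5% DMSO, quadruplicates). Antagonist mode measured repression of beclomethasone-induced signal. Luminescence after lysis gave EC50 or IC50.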

Sequence of human glucocorticoid receptor (P04150 whole entry): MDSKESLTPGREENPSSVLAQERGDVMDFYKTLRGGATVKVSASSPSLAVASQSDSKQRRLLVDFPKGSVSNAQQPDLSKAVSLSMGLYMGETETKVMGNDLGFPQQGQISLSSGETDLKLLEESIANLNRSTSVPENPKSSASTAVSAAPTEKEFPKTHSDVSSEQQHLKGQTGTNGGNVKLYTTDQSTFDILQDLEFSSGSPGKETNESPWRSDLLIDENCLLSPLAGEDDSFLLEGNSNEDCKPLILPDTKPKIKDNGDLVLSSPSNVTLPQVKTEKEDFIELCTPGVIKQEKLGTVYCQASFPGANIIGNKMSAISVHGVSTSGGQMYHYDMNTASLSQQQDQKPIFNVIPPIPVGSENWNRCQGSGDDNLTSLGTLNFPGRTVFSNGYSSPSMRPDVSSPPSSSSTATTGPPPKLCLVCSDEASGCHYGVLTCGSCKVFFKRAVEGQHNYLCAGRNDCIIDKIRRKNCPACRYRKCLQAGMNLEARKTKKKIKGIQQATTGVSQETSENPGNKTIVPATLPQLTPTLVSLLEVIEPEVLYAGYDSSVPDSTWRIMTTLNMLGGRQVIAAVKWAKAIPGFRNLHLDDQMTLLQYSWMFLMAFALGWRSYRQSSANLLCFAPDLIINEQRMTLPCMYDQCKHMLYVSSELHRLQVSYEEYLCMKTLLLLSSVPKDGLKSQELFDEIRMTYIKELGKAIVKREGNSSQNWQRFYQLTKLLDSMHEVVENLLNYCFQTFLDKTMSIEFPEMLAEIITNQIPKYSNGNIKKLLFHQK

Row | inhibition at 1 µM [1] [%] | IC50 [2] [nM] | SMILES
1 | 97 | 100 to 1000 | Cc1cnc(C(=O)N[C@@H]2[C@@H](c3ccccc3)N(c3ccc4c(cnn4-c4ccc(=O)n(C)c4)c3)C(=O)C2(C)C)s1 [Example 6, N-[(2R,3S)-4,4-Dimethyl-1-[1-(1-methyl-6-oxo-1H-pyridin-3-yl)-1H-indazol-5-yl]-5-oxo-2-phenyl-pyrrolidin-3-yl]-5-methyl-thiazole-2-carboxylic acid amide]
2 | 96 | 1000 to 15000 | Cc1cc(C(=O)N[C@@H]2[C@@H](c3ccccc3)N(c3ccc4c(cnn4-c4ccc(=O)n(C)c4)c3)C(=O)C2(C)C)no1 [Example 7, N-((2R,3S)-4,4-dimethyl-1-(1-(1-methyl-6-oxo-1,6-dihydropyridin-3-yl)-1H-indazol-5-yl)-5-oxo-2-phenylpyrrolidin-3-yl)-5-methylisoxazole-3-carboxamide]
